Data published in ChEMBL document CHEMBL3792284, “Synthesis of triazoloquinazolinone based compounds as tubulin polymerization inhibitors and vascular disrupting agents” (Eur J Med Chem, 2016).

Assays:
Tubulin = Tubulin (Bos taurus, UniProt Q6B856+Q862L2+Q862F3); assay: Inhibition of bovine tubulin polymerization after 1 hr by fluorescence spectrometry; type: protein assay
HT-29 [1] = assay: Antiproliferative activity against human HT-29 cells at 10 uM after 72 hrs by MTS assay; type: functional; settings: HT-29, 72 h
[2] = Growth inhibition of human HL-60(TB) cells after 48 hrs by sulforhodamine B assay; type: functional; settings: HL-60, 48 h
K562 [3] = assay: Growth inhibition of human K562 cells after 48 hrs by sulforhodamine B assay; type: functional; settings: K562, 48 h
SR [4] = assay: Growth inhibition of human SR cells after 48 hrs by sulforhodamine B assay; type: functional
A549 [5] = assay: Growth inhibition of human A549/ATCC cells after 48 hrs by sulforhodamine B assay; type: functional; settings: A549, 48 h
[6] = Growth inhibition of human HOP62 cells after 48 hrs by sulforhodamine B assay; type: functional; settings: HOP-62, 48 h
NCI-H522 [7] = assay: Growth inhibition of human NCI-H522 cells after 48 hrs by sulforhodamine B assay; type: functional; settings: NCI-H522, 48 h
[8] = Growth inhibition of human COLO205 cells after 48 hrs by sulforhodamine B assay; type: functional; settings: COLO 205, 48 h
[9] = Growth inhibition of human HCT116 cells after 48 hrs by sulforhodamine B assay; type: functional; settings: HCT-116, 48 h
[10] = Growth inhibition of human HCT15 cells after 48 hrs by sulforhodamine B assay; type: functional; settings: HCT-15, 48 h
HT-29 [11] = assay: Growth inhibition of human HT-29 cells after 48 hrs by sulforhodamine B assay; type: functional; settings: HT-29, 48 h
[12] = Growth inhibition of human SF295 cells after 48 hrs by sulforhodamine B assay; type: functional; settings: SF-295, 48 h
[13] = Growth inhibition of human SNB75 cells after 48 hrs by sulforhodamine B assay; type: functional; settings: SNB-75, 48 h
U-251 [14] = assay: Growth inhibition of human U251 cells after 48 hrs by sulforhodamine B assay; type: functional; settings: U-251, 48 h
SK-MEL-5 [15] = assay: Growth inhibition of human SK-MEL-5 cells after 48 hrs by sulforhodamine B assay; type: functional; settings: SK-MEL-5, 48 h
[16] = Growth inhibition of human OVCAR3 cells after 48 hrs by sulforhodamine B assay; type: functional; settings: OVCAR-3, 48 h
A498 [17] = assay: Growth inhibition of human A498 cells after 48 hrs by sulforhodamine B assay; type: functional; settings: A498, 48 h
[18] = Growth inhibition of human Caki1 cells after 48 hrs by sulforhodamine B assay; type: functional; settings: CAKI-1, 48 h
[19] = Growth inhibition of human PC3 cells after 48 hrs by sulforhodamine B assay; type: functional; settings: PC-3, 48 h
MDA-MB-435 [20] = assay: Growth inhibition of human MDA-MB-435 cells after 72 hrs by MTT assay; type: functional; settings: MDA-MB-435, 72 h
MCF7 [21] = assay: Growth inhibition of human MCF7 cells after 3 days by MTT assay; type: functional; settings: MCF7, 72 h
HUVEC = assay: Inhibition of cell invasion of HUVEC at 1 uM after 24 hrs by crystal violet staining based Boyden chamber assay; type: functional; settings: Homo sapiens
[22] = Growth inhibition of human HL-60(TB) cells at 10 uM after 48 hrs by sulforhodamine B assay; type: functional; settings: HL-60, 48 h, read-out: GI
K562 [23] = assay: Growth inhibition of human K562 cells at 10 uM after 48 hrs by sulforhodamine B assay; type: functional; settings: K562, 48 h, read-out: GI
SR [24] = assay: Growth inhibition of human SR cells at 10 uM after 48 hrs by sulforhodamine B assay; type: functional; settings: read-out: GI
A549 [25] = assay: Growth inhibition of human A549/ATCC cells at 10 uM after 48 hrs by sulforhodamine B assay; type: functional; settings: A549, 48 h, read-out: GI
[26] = Growth inhibition of human HOP62 cells at 10 uM after 48 hrs by sulforhodamine B assay; type: functional; settings: HOP-62, 48 h, read-out: GI
NCI-H522 [27] = assay: Growth inhibition of human NCI-H522 cells at 10 uM after 48 hrs by sulforhodamine B assay; type: functional; settings: NCI-H522, 48 h, read-out: GI
[28] = Growth inhibition of human COLO205 cells at 10 uM after 48 hrs by sulforhodamine B assay; type: functional; settings: COLO 205, 48 h, read-out: GI
[29] = Growth inhibition of human HCT116 cells at 10 uM after 48 hrs by sulforhodamine B assay; type: functional; settings: HCT-116, 48 h, read-out: GI
[30] = Growth inhibition of human HCT15 cells at 10 uM after 48 hrs by sulforhodamine B assay; type: functional; settings: HCT-15, 48 h, read-out: GI
HT-29 [31] = assay: Growth inhibition of human HT-29 cells at 10 uM after 48 hrs by sulforhodamine B assay; type: functional; settings: HT-29, 48 h, read-out: GI
[32] = Growth inhibition of human SF295 cells at 10 uM after 48 hrs by sulforhodamine B assay; type: functional; settings: SF-295, 48 h, read-out: GI
[33] = Growth inhibition of human SNB75 cells at 10 uM after 48 hrs by sulforhodamine B assay; type: functional; settings: SNB-75, 48 h, read-out: GI
U-251 [34] = assay: Growth inhibition of human U251 cells at 10 uM after 48 hrs by sulforhodamine B assay; type: functional; settings: U-251, 48 h, read-out: GI
MDA-MB-435 [35] = assay: Growth inhibition of human MDA-MB-435 cells at 10 uM after 48 hrs by sulforhodamine B assay; type: functional; settings: MDA-MB-435, 48 h, read-out: GI
SK-MEL-5 [36] = assay: Growth inhibition of human SK-MEL-5 cells at 10 uM after 48 hrs by sulforhodamine B assay; type: functional; settings: SK-MEL-5, 48 h, read-out: GI
[37] = Growth inhibition of human OVCAR3 cells at 10 uM after 48 hrs by sulforhodamine B assay; type: functional; settings: OVCAR-3, 48 h, read-out: GI
[38] = Growth inhibition of human NCI-ADR-RES cells at 10 uM after 48 hrs by sulforhodamine B assay; type: functional; settings: read-out: GI
A498 [39] = assay: Growth inhibition of human A498 cells at 10 uM after 48 hrs by sulforhodamine B assay; type: functional; settings: A498, 48 h, read-out: GI
[40] = Growth inhibition of human Caki1 cells at 10 uM after 48 hrs by sulforhodamine B assay; type: functional; settings: CAKI-1, 48 h, read-out: GI
[41] = Growth inhibition of human PC3 cells at 10 uM after 48 hrs by sulforhodamine B assay; type: functional; settings: PC-3, 48 h, read-out: GI
[42] = Growth inhibition of human DU145 cells at 10 uM after 48 hrs by sulforhodamine B assay; type: functional; settings: DU-145, 48 h, read-out: GI
MCF7 [43] = assay: Growth inhibition of human MCF7 cells at 10 uM after 48 hrs by sulforhodamine B assay; type: functional; settings: MCF7, 48 h, read-out: GI
MDA-MB-468 [44] = assay: Growth inhibition of human MDA-MB-468 cells at 10 uM after 48 hrs by sulforhodamine B assay; type: functional; settings: MDA-MB-468, 48 h, read-out: GI
MDA-MB-435 [45] = assay: Growth inhibition of human MDA-MB-435 cells after 48 hrs by sulforhodamine B assay; type: functional; settings: MDA-MB-435, 48 h
[46] = Growth inhibition of human NCI-ADR-RES cells after 48 hrs by sulforhodamine B assay; type: functional
[47] = Growth inhibition of human DU145 cells after 48 hrs by sulforhodamine B assay; type: functional; settings: DU-145, 48 h
MCF7 [48] = assay: Growth inhibition of human MCF7 cells after 48 hrs by sulforhodamine B assay; type: functional; settings: MCF7, 48 h
MDA-MB-468 [49] = assay: Growth inhibition of human MDA-MB-468 cells after 48 hrs by sulforhodamine B assay; type: functional; settings: MDA-MB-468, 48 h
[50] = Cytotoxicity against human HL-60(TB) cells assessed as cell growth at 10 uM after 48 hrs by sulforhodamine B assay; type: functional; settings: HL-60, 48 h, read-out: Activity
MDA-MB-435 [51] = assay: Cytotoxicity against human MDA-MB-435 cells assessed as cell growth at 10 uM after 48 hrs by sulforhodamine B assay; type: functional; settings: MDA-MB-435, 48 h, read-out: Activity
[52] = Cytotoxicity against human COLO205 cells assessed as cell growth at 10 uM after 48 hrs by sulforhodamine B assay; type: functional; settings: COLO 205, 48 h, read-out: Activity

## COc1ccc(-c2nnc3[nH]c(=O)c4ccccc4n23)cc1O
Tubulin
  IC50: 4.26 µM
HT-29 [1]
  inhibition at 10 µM: 10%

## COc1cc(-c2nnc3[nH]c(=O)c4ccccc4n23)cc(OC)c1OC
Tubulin
  IC50: > 10 µM
HT-29 [1]
  inhibition at 10 µM: 2%

## COc1ccc(-c2nnc3n(C)c(=O)c4ccccc4n23)cc1
Tubulin
  IC50: > 10 µM
HT-29 [1]
  inhibition at 10 µM: 2%

## COc1ccc(/C=C\c2cc(OC)c(OC)c(OC)c2)cc1O [COMBRETASTATIN A4]
[2]
  GI50: 2 nM
K562 [3]
  GI50: 2 nM
SR [4]
  GI50: 3 nM
A549 [5]
  GI50: 16 nM
[6]
  GI50: 2 nM
NCI-H522 [7]
  GI50: 2 nM
[8]
  GI50: 221 nM
[9]
  GI50: 3 nM
[10]
  GI50: 4 nM
HT-29 [11]
  GI50: 118 nM
[12]
  GI50: 4 nM
[13]
  GI50: 8 nM
U-251 [14]
  GI50: 4 nM
SK-MEL-5 [15]
  GI50: 3 nM
[16]
  GI50: 2 nM
A498 [17]
  GI50: 6 nM
[18]
  GI50: 25 nM
[19]
  GI50: 1 nM
MDA-MB-435 [20]
  GI50: 3 nM
MCF7 [21]
  GI50: 18 nM

## COc1cc(-c2nnc3n(C)c(=O)c4ccccc4n23)ccc1O
Tubulin
  IC50: > 10 µM
HT-29 [1]
  inhibition at 10 µM: 0%

## COc1ccc(-c2nnc3[nH]c(=O)c4ccccc4n23)cc1
Tubulin
  IC50: > 10 µM
HT-29 [1]
  inhibition at 10 µM: 0%

## Cn1c(=O)c2ccccc2n2c(-c3ccc(O)c(O)c3)nnc12
Tubulin
  IC50: > 10 µM
HT-29 [1]
  inhibition at 10 µM: 0%

## COc1cc2c(Oc3ccc4[nH]c(C)cc4c3F)ncnc2cc1OCCCN1CCCC1 [CEDIRANIB]
HUVEC
  inhibition at 1 µM: 74%

## COc1ccc(-c2nnc3[nH]c(=O)c4ccccc4n23)cc1OC
Tubulin
  IC50: > 10 µM
HT-29 [1]
  inhibition at 10 µM: 0%

## COc1cc(-c2nnc3[nH]c(=O)c4ccccc4n23)ccc1O
Tubulin
  IC50: > 10 µM
HT-29 [1]
  inhibition at 10 µM: 0%

## COc1cc(-c2nnc3n(C)c(=O)c4ccccc4n23)cc(OC)c1OC
Tubulin
  IC50: > 10 µM
HT-29 [1]
  inhibition at 10 µM: 0%

## COc1ccc(-c2nnc3n(C)c(=O)c4ccccc4n23)cc1OC
Tubulin
  IC50: > 10 µM
HT-29 [1]
  inhibition at 10 µM: 1%

## COc1ccc(-c2nnc3n(C)c(=O)c4ccccc4n23)cc1N
Tubulin
  IC50: > 10 µM
HT-29 [1]
  inhibition at 10 µM: 95%
[22]
  inhibition of growth at 10 µM: 100%
K562 [23]
  inhibition of growth at 10 µM: 92%
SR [24]
  inhibition of growth at 10 µM: 89%
A549 [25]
  inhibition of growth at 10 µM: 72%
[26]
  inhibition of growth at 10 µM: 83%
NCI-H522 [27]
  inhibition of growth at 10 µM: 91%
[28]
  inhibition of growth at 10 µM: 100%
[29]
  inhibition of growth at 10 µM: 76%
[30]
  inhibition of growth at 10 µM: 78%
HT-29 [31]
  inhibition of growth at 10 µM: 95%
[32]
  inhibition of growth at 10 µM: 98%
[33]
  inhibition of growth at 10 µM: 81%
U-251 [34]
  inhibition of growth at 10 µM: 81%
MDA-MB-435 [35]
  inhibition of growth at 10 µM: 100%
SK-MEL-5 [36]
  inhibition of growth at 10 µM: 86%
[37]
  inhibition of growth at 10 µM: 92%
[38]
  inhibition of growth at 10 µM: 83%
A498 [39]
  inhibition of growth at 10 µM: 80%
[40]
  inhibition of growth at 10 µM: 65%
[41]
  inhibition of growth at 10 µM: 67%
[42]
  inhibition of growth at 10 µM: 79%
MCF7 [43]
  inhibition of growth at 10 µM: 85%
MDA-MB-468 [44]
  inhibition of growth at 10 µM: 89%
K562 [3]
  GI50: 39 nM
SR [4]
  GI50: 34 nM
A549 [5]
  GI50: 1470 nM
[6]
  GI50: 48 nM
NCI-H522 [7]
  GI50: 31 nM
[8]
  GI50: 47 nM
[9]
  GI50: 57 nM
[10]
  GI50: 50 nM
HT-29 [11]
  GI50: 43 nM
[12]
  GI50: 50 nM
U-251 [14]
  GI50: 1630 nM
MDA-MB-435 [45]
  GI50: 23 nM
SK-MEL-5 [15]
  GI50: 60 nM
[16]
  GI50: 47 nM
[46]
  GI50: 65 nM
A498 [17]
  GI50: 2840 nM
[18]
  GI50: 1950 nM
[19]
  GI50: 2650 nM
[47]
  GI50: 3.09 µM
MCF7 [48]
  GI50: 43 nM
MDA-MB-468 [49]
  GI50: 2330 nM
[50]
  growth at 10 µM: 11%
MDA-MB-435 [51]
  growth at 10 µM: 44%
[52]
  growth at 10 µM: 18%
